Laboratory results as given in patent US20260207563A1, “UREA COMPOUNDS AS ACTIVATORS OF POTASSIUM CHANNELS KV7.2/7.3 USEFUL IN THE TREATMENT OF CNS AND PNS DISORDERS” (ANGELINI PHARMA S.P.A., priority 2022, published 2026).

Assays:
Assay type in all cases: cell-based
[1] = molecular target: T1, heteromeric KV7.3/KV7.5 channel (KCNQ3, KCNQ5) (Homo sapiens, UniProt O43525+Q9NR82); experiment: Automated patch-clamp counter-screening against KV7.3/KV7.5 channel; settings: HEK293 cells expressing Kv7.3/KV7.5; class by maximal shift in the Vhalf at 30 μM
T1 construct: host or cells: HEK293
How it was run: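 HEK293 cells with constitutive Kv7.3 and tetracycline-inducible Kv7.5 were recorded by automated patch clamp. Ten concentrations (1:3 series from 30 μM, quadruplicate) were tested; Vhalf shifts were fitted with a 4-parameter logistic to give EC50 and maximal Vhalf shift, with selectivity based on the shift at 30 μM.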

[2] = molecular target: T2, homomeric KV7.4 channel (KCNQ4) (Homo sapiens, UniProt P56696); experiment: Automated patch-clamp (Qube) counter-screening assay against KV7.4 channel; settings: CHO-K1 cells expressing KV7.4; class by maximal shift in the Vhalf at 30 μM
T2 construct: host or cells: CHO-K1
How it was run: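 CHO-K1 cells stably expressing homomeric human KV7.4 were recorded on the Qube automated patch clamp. Ten concentrations (1:3 dilutions from 30 μM) were tested in quadruplicate. The mean Vhalf shift was fitted with a 4-parameter logistic to give EC50 and maximal Vhalf shift, and selectivity was based on the shift at 30 μM.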

[3] = molecular target: T3, heteromeric KV7.2/KV7.3 channels (KCNQ2, KCNQ3) (Homo sapiens, UniProt O43525+O43526); experiment: Automated patch-clamp (Sophion Qube 384) potency assay against KV7.2/KV7.3 channels; settings: CHO-K1/Kv7.2/Kv7.3 cells; for EC50: EC50 from concentration-response of shift in Vhalf, 10 concentrations up to 30 μM, read-out: Kv7.2/7.3 EC50; for Kv7.2/7.3 ΔV1/2: maximal shift in the Vhalf from the top of the curve
T3 construct: expressed in transfected cells; host or cells: CHO-K1
How it was run: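 Whole-cell automated patch clamp on CHO-K1 cells stably expressing human KV7.2/KV7.3, held at −80 mV; I-V steps −100 to +20 mV (1 s) with 0 mV tail pulses, Boltzmann-fitted activation curves. Ten concentrations (1:3 from 30 μM, quadruplicate) versus 0.3% DMSO control; EC50 and maximal shift from 4-parameter fits of Vhalf shift.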

Row | Compound | EC50 [3] [µM] | Kv7.2/7.3 ΔV1/2 [3] [mV] | Kv7.3/7.5 selectivity criteria [1] | Kv7.4 selectivity criteria [2]
1 | O=C(NCCC1(C(F)(F)F)CC1)NCc1ccc(OCC(F)(F)F)nc1 [Compound 80, 1-((6-(2,2,2-Trifluoroethoxy)pyridin-3-yl)methyl)-3-(2-(1-(trifluoromethyl)cyclopropyl)ethyl)urea] | 3.9 | 28.15 | A (Selective compounds showed Kv7.4 and/or Kv7.3/7.5 ΔV1/2 equal to or lower than 15 mV (letter A in table 3)) | B (Non-selective compounds showed Kv7.4 and/or Kv7.3/7.5 ΔV1/2 higher than 15 mV (letter B in table 3))
2 | C[C@@H](Oc1cc(CNC(=O)NCCC2(C(F)(F)F)CC2)ncn1)C(F)(F)F [Compound 91] | 2.29 | 37.24 | B (Non-selective compounds showed Kv7.4 and/or Kv7.3/7.5 ΔV1/2 higher than 15 mV (letter B in table 3)) | A (Selective compounds showed Kv7.4 and/or Kv7.3/7.5 ΔV1/2 equal to or lower than 15 mV (letter A in table 3))
3 | O=C(NCc1ccnc(C(F)(F)F)c1)N[C@@H]1CCc2ccc(F)cc21 [Compound 92] | 3.95 | 16.77 | A (Selective compounds showed Kv7.4 and/or Kv7.3/7.5 ΔV1/2 equal to or lower than 15 mV (letter A in table 3)) | A (Selective compounds showed Kv7.4 and/or Kv7.3/7.5 ΔV1/2 equal to or lower than 15 mV (letter A in table 3))
4 | C[C@@H](Oc1nccc(CNC(=O)NCCC2(C(F)(F)F)CC2)n1)C(F)(F)F [Compound 93] | 4.46 | 34.16 | A (Selective compounds showed Kv7.4 and/or Kv7.3/7.5 ΔV1/2 equal to or lower than 15 mV (letter A in table 3)) | B (Non-selective compounds showed Kv7.4 and/or Kv7.3/7.5 ΔV1/2 higher than 15 mV (letter B in table 3))
5 | O=C(NCc1ccnc(C(F)(F)F)c1)N[C@H]1CCc2ccc(F)cc21 [Compound 94] | 4.17 | 13.23 | A (Selective compounds showed Kv7.4 and/or Kv7.3/7.5 ΔV1/2 equal to or lower than 15 mV (letter A in table 3)) | A (Selective compounds showed Kv7.4 and/or Kv7.3/7.5 ΔV1/2 equal to or lower than 15 mV (letter A in table 3))
6 | O=C(NCCC1(C(F)(F)F)CC1)N1CCCC1c1ccnc(OCC(F)(F)F)c1 (stereo not drawn) [Compound 95] | 2.29 | 21.55 | A (Selective compounds showed Kv7.4 and/or Kv7.3/7.5 ΔV1/2 equal to or lower than 15 mV (letter A in table 3)) | A (Selective compounds showed Kv7.4 and/or Kv7.3/7.5 ΔV1/2 equal to or lower than 15 mV (letter A in table 3))
7 | C[C@H](Oc1cc(CNC(=O)NCCC2(C(F)(F)F)CC2)ncn1)C(F)(F)F [Compound 96] | 6.61 | 25.66 | A (Selective compounds showed Kv7.4 and/or Kv7.3/7.5 ΔV1/2 equal to or lower than 15 mV (letter A in table 3)) | A (Selective compounds showed Kv7.4 and/or Kv7.3/7.5 ΔV1/2 equal to or lower than 15 mV (letter A in table 3))

Now those with a lower EC50 [3], led by results:

Row | EC50 [3] [µM] | Kv7.2/7.3 ΔV1/2 [3] [mV] | Compound | Kv7.3/7.5 selectivity criteria [1] | Kv7.4 selectivity criteria [2]
8 | 0.862 | 26.55 | O=C(NCc1ccnc(OCC(F)(F)F)c1)NCC1CCCC(F)(F)C1 (stereo not drawn) [Compound 79, 1-((3,3-Difluorocyclohexyl)methyl)-3-((2-(2,2,2-trifluoroethoxy)pyridin-4-yl)methyl) urea] | A (Selective compounds showed Kv7.4 and/or Kv7.3/7.5 ΔV1/2 equal to or lower than 15 mV (letter A in table 3)) | A (Selective compounds showed Kv7.4 and/or Kv7.3/7.5 ΔV1/2 equal to or lower than 15 mV (letter A in table 3))
9 | 2.15 | 18.38 | O=C(NCCC1(C(F)(F)F)CC1)NCc1cc(OCC(F)(F)F)nc(C(F)(F)F)c1 [Compound 82, 1-((2-(2,2,2-Trifluoroethoxy)-6-(trifluoromethyl)pyridin-4-yl)methyl)-3-(2-(1-(trifluoromethyl)cyclopropyl)ethyl)urea] | A (Selective compounds showed Kv7.4 and/or Kv7.3/7.5 ΔV1/2 equal to or lower than 15 mV (letter A in table 3)) | B (Non-selective compounds showed Kv7.4 and/or Kv7.3/7.5 ΔV1/2 higher than 15 mV (letter B in table 3))
10 | 0.206 | 20.49 | O=C(NCc1ccnc(OCC(F)(F)F)c1)NCc1cc(F)ccc1Cl [Compound 85, 1-(2-Chloro-5-fluorobenzyl)-3-((2-(2,2,2-trifluoroethoxy)pyridin-4-yl)methyl)urea] | A (Selective compounds showed Kv7.4 and/or Kv7.3/7.5 ΔV1/2 equal to or lower than 15 mV (letter A in table 3)) | A (Selective compounds showed Kv7.4 and/or Kv7.3/7.5 ΔV1/2 equal to or lower than 15 mV (letter A in table 3))
11 | 1.35 | 38.89 | O=C(NCc1ccnc(OCC(F)(F)F)c1)N[C@@H]1CCc2ccc(F)cc21 [Compound 86, (R)-1-(6-fluoro-2,3-dihydro-1H-inden-1-yl)-3-((2-(2,2,2-trifluoroethoxy)pyridin-4-yl)methyl)urea] | A (Selective compounds showed Kv7.4 and/or Kv7.3/7.5 ΔV1/2 equal to or lower than 15 mV (letter A in table 3)) | A (Selective compounds showed Kv7.4 and/or Kv7.3/7.5 ΔV1/2 equal to or lower than 15 mV (letter A in table 3))
12 | 1.85 | 27.66 | O=C(NCCC1(C(F)(F)F)CC1)NCc1cc(OCC(F)(F)F)ncc1F [Compound 87, 1-((5-Fluoro-2-(2,2,2-trifluoroethoxy)pyridin-4-yl)methyl)-3-(2-(1-(trifluoromethyl)cyclopropyl)ethyl)urea] | A (Selective compounds showed Kv7.4 and/or Kv7.3/7.5 ΔV1/2 equal to or lower than 15 mV (letter A in table 3)) | A (Selective compounds showed Kv7.4 and/or Kv7.3/7.5 ΔV1/2 equal to or lower than 15 mV (letter A in table 3))
13 | 0.96 | 30.26 | O=C(NCc1ccnc(OCC(F)(F)F)c1)NCC1CCC(F)(F)C1 (stereo not drawn) [Compound 88, 1-((3,3-Difluorocyclopentyl)methyl)-3-((2-(2,2,2-trifluoroethoxy)pyridin-4-yl)methyl) urea] | B (Non-selective compounds showed Kv7.4 and/or Kv7.3/7.5 ΔV1/2 higher than 15 mV (letter B in table 3)) | A (Selective compounds showed Kv7.4 and/or Kv7.3/7.5 ΔV1/2 equal to or lower than 15 mV (letter A in table 3))
14 | 2.18 | 18.85 | O=C(NCc1ccnc(OCC(F)(F)F)c1)N[C@H]1CCc2ccc(F)cc21 [Compound 89] | A (Selective compounds showed Kv7.4 and/or Kv7.3/7.5 ΔV1/2 equal to or lower than 15 mV (letter A in table 3)) | B (Non-selective compounds showed Kv7.4 and/or Kv7.3/7.5 ΔV1/2 higher than 15 mV (letter B in table 3))
15 | 0.237 | 20.86 | O=C(NCCC1(C(F)(F)F)CC1)NCc1ccnc(OCC(F)(F)F)c1F [Compound 90] | A (Selective compounds showed Kv7.4 and/or Kv7.3/7.5 ΔV1/2 equal to or lower than 15 mV (letter A in table 3)) | A (Selective compounds showed Kv7.4 and/or Kv7.3/7.5 ΔV1/2 equal to or lower than 15 mV (letter A in table 3))
